Assay results taken from US10266497B2 (ABIDE THERAPEUTICS, INC., priority 2017, dated 2019).

Experiments:
MAGL [1] = biological target: T1, MAGL (Homo sapiens, UniProt Q99685); assay: In vitro competitive activity-based protein profiling, MAGL, human; conditions: for inhibition at 10 µM: read-out: MAGL % inh. (human) at 10 uM; for inhibition at 1 µM: read-out: MAGL % inh. 1 μM (human)
T1 sequence (Q99685 1-303): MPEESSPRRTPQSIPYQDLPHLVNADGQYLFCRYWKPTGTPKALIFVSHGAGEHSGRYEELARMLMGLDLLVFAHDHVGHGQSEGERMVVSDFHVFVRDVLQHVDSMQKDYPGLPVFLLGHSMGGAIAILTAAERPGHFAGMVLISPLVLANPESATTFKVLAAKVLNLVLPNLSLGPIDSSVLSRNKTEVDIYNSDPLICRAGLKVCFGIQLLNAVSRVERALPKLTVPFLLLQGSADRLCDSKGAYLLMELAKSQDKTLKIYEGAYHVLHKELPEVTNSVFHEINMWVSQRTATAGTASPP

MAGL [2] = biological target: T2, MAGL (Mus musculus, UniProt O35678); assay: In vitro competitive activity-based protein profiling, MAGL, mouse; conditions: read-out: MAGL % inh. 1 μM (mouse)
T2 sequence (O35678 1-303): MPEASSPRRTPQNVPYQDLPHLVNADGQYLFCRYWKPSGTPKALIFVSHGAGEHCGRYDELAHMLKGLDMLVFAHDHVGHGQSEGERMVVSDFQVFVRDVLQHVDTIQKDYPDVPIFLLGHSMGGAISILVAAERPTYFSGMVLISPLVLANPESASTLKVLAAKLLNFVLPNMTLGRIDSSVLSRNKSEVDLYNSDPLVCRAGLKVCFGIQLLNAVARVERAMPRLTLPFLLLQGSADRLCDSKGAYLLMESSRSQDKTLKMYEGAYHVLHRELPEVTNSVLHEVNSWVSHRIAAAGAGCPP

| SMILES | inhibition at 10 µM (MAGL [1]) [%] | inhibition at 1 µM (MAGL [2]) [%] | inhibition at 1 µM (MAGL [1]) [%] |
| --- | --- | --- | --- |
| NC(=O)c1ccc(Cl)cc1CN1CCC2(CCN(C(=O)n3ccc(C(=O)O)n3)CC2)C1 [Example 300, 1-(2-(2-carbamoyl-5-chlorobenzyl)-2,8-diazaspiro[4.5]decane-8-carbonyl)-1H-pyrazole-3-carboxylic acid] | > 75 | 0 to 25 | – |
| C[C@@H]1CN(Cc2ccc(-c3ccccc3)cc2C(F)(F)F)CCN1C(=O)n1ccc(C(=O)O)n1 [Example 351, (R)-1-(2-methyl-4-((3-(trifluoromethyl)-[1,1′-biphenyl]-4-yl)methyl)piperazine-1-carbonyl)-1H-pyrazole-3-carboxylic acid] | – | > 75 | > 75 |
| O=C(O)c1ccn(C(=O)N2CCC3(CCCN3Cc3ccc(C(F)(F)F)cc3N3CCOCC3)CC2)n1 [Example 405, 1-(1-(2-morpholino-4-(trifluoromethyl)benzyl)-1,8-diazaspiro[4.5]decane-8-carbonyl)-1H-pyrazole-3-carboxylic acid] | – | > 75 | > 75 |
| C[C@@H]1CN(Cc2cccc(Oc3cc(C(F)(F)F)ccn3)c2)CCN1C(=O)n1ccc(C(=O)O)n1 [Example 374, (R)-1-(2-methyl-4-(3-((4-(trifluoromethyl)pyridin-2-yl)oxy)benzyl)piper-azine-1-carbonyl)-1H-pyrazole-3-carboxylic acid] | – | > 75 | > 75 |
| O=C(O)c1ccn(C(=O)N2C[C@H]3C[C@H](OCc4cccc(C5CCCC5)c4)C[C@H]3C2)n1 [Example 34, 1-(trans-5-((3-Cyclopentylbenzyl)oxy)octahydrocyclopenta[c]pyrrole-2-carbonyl)-1H-pyrazole-3-carboxylic Acid] | – | > 75 | > 75 |
| O=C(O)c1ccn(C(=O)N2CCC3(CCN(Cc4cccc(Oc5ccccn5)c4)C3)CC2)n1 [Example 324, 1-(2-(3-(pyridin-2-yloxy)benzyl)-2,8-diazaspiro[4.5]decane-8-carbonyl)-1H-pyrazole-3-carboxylic acid] | – | 0 to 25 | 25 to 50 |
| O=C(O)c1nn(C(=O)N2C[C@H]3C[C@H](Oc4cccc(-c5ccccc5)c4)C[C@H]3C2)cc1C(F)(F)F [Example 369, 1-(trans-5-([1,1′-biphenyl]-3-yloxy)octahydro-cyclopenta[c]pyrrole-2-carbonyl)-4-(trifluoromethyl)-1H-pyrazole-3-carboxylic acid] | – | > 75 | > 75 |
| O=C(O)c1nn(C(=O)N2CCN(Cc3cc(Cl)cc(-c4cncnc4)c3)CC2)cc1Cl [Example 323, 4-chloro-1-(4-(3-chloro-5-(pyrimidin-5-yl)benzyl)piperazine-1-carbonyl)-1H-pyrazole-3-carboxylic acid] | – | > 75 | > 75 |
| NC(=O)c1ccn(C(=O)N2CCN(Cc3cccc(C4(C(=O)O)CCOCC4)c3)CC2)n1 [Example 455, 4-(3-((4-(3-carbamoyl-1H-pyrazole-1-carbonyl)piperazin-1-yl)methyl)phenyl) tetrahydro-2H-pyran-4-carboxylic acid] | – | > 75 | > 75 |
| C[C@@H]1CN(Cc2ccc(F)c(Oc3ccccc3)c2)CCN1C(=O)n1ccc(C(=O)O)n1 [Example 294, (R)-1-(4-(4-fluoro-3-phenoxybenzyl)-2-methylpiperazine-1-carbonyl)-1H-pyrazole-3-carboxylic acid] | – | > 75 | > 75 |
| CN(Cc1cccc(-c2ccccc2)c1)[C@H]1C[C@@H]2CN(C(=O)n3ccc(C(=O)O)n3)C[C@@H]2C1 [Example 298, 1-(trans-5-(([1,1′-biphenyl]-3-ylmethyl)(methyl)amino)octahydrocyc-lopenta[c]pyrrole-2-carbonyl)-1H-pyrazole-3-carboxylic acid] | – | > 75 | > 75 |
| O=C(O)c1ccn(C(=O)N2CCC(OCc3cccc(N4CCCC4)c3)CC2)n1 [Example 226, 1-(4-((3-(pyrrolidin-1-yl)benzyl)oxy)piper-idine-1-carbonyl)-1H-pyrazole-3-carboxylic acid] | – | > 75 | > 75 |
| O=C(O)c1ccn(C(=O)N2CCC(OCc3cc(N4CCCC4)cc(C(F)(F)F)c3)CC2)n1 [Example 331, 1-(4-((3-(pyrrolidin-1-yl)-5-(trifluoromethyl)benzyl)oxy)piper-idine-1-carbonyl)-1H-pyrazole-3-carboxylic acid] | – | > 75 | > 75 |
| O=C(O)c1ccn(C(=O)N2CCC3(CCN(Cc4ccc(Cl)c(N5CCCC5)c4)C3)CC2)n1 [Example 343, 1-(2-(4-chloro-3-(pyrrolidin-1-yl)benzyl)-2,8-diazaspiro[4.5]decane-8-carbonyl)-1H-pyrazole-3-carboxylic acid] | – | 0 to 25 | 25 to 50 |
| O=C(O)c1ccn(C(=O)N2CCC(OCc3cc(Cl)ccc3C(F)(F)F)CC2)n1 [Example 277, 1-(4-((5-chloro-2-(trifluoromethyl)benzyl)oxy)piper-idine-1-carbonyl)-1H-pyrazole-3-carboxylic acid] | – | > 75 | > 75 |
| O=C(O)c1ccn(C(=O)N2CCC3(CCN(C(=O)c4cc(Cl)ccc4C(F)(F)F)C3)CC2)n1 [Example 366, 1-(2-(5-chloro-2-(trifluoromethyl)benzoyl)-2,8-diazaspiro[4.5]decane-8-carbonyl)-1H-pyrazole-3-carboxylic acid] | > 75 | 0 to 25 | – |
| O=C(O)c1ccn(C(=O)N2CCC3(CCN(Cc4cccc(Oc5cncnc5)c4)C3)CC2)n1 [Example 31, 1-(2-(3-(Pyrimidin-5-yloxy)benzyl)-2,8-diazaspiro[4.5]decane-8-carbonyl)-1H-pyrazole-3-carboxylic Acid] | – | 50 to 75 | 0 to 25 |
| Cc1ccc(COC2CCN(C(=O)n3ccc(C(=O)O)n3)CC2)cc1C(F)(F)F [Example 236, 1-(4-((4-methyl-3-(trifluoromethyl)benzyl)oxy)piper-idine-1-carbonyl)-1H-pyrazole-3-carboxylic acid] | – | > 75 | > 75 |
| O=C(O)c1ccn(C(=O)N2C[C@H]3C[C@H](Oc4cccc(C5CCCC5)c4)C[C@H]3C2)n1 [Example 232, 1-(trans-5-(3-cyclopentylphenoxy)octahydrocyclopenta [c]pyrrole-2-carbonyl)-1H-pyrazole-3-carboxylic acid] | – | > 75 | > 75 |
| O=C(O)c1nn(C(=O)N2C[C@H]3C[C@H](OCc4cccc(C(F)(F)F)c4)C[C@H]3C2)cc1Cl [Example 314, 4-chloro-1-(trans-5-((3-(trifluoromethyl)benzyl)oxy)octa-hydrocyclopenta[c]pyrrole-2-carbonyl)-1H-pyrazole-3-carboxylic acid] | – | > 75 | > 75 |
| O=C(O)c1ccn(C(=O)N2CCC3(CCN(Cc4ccc(Cl)c(N5CCOCC5)c4)C3)CC2)n1 [Example 372, 1-(2-(4-chloro-3-morpholinobenzyl)-2,8-diazaspiro[4.5]decane-8-carbonyl)-1H-pyrazole-3-carboxylic acid] | – | 25 to 50 | 0 to 25 |
